Entries after “also recorded” stand apart in the source; their conditions may differ.

Data set [1] has as its system K562 cells. Description: K562 cell viability by propidium iodide exclusion over four days. Type of data set: cell-based. Particulars: single dose, 1 mM phenformin, 750 nM imatinib, 25 nM rapamycin, FIG. 1B. The method, then:
(§1) K562 cell line was obtained from ATCC.
K562 cells were treated with a single dose of imatinib, rapamycin, or phenformin, and assessed for cell number (Coulter Counter) and cell viability (by propidium iodide exclusion) over four days.

The subject of data set [2] is K562 cells. Description: Glutamine uptake of K562 cultures over four days. It is filed as cell-based. The following applies: FIG. 8. The method, then: (§2) Daily cell culture supernatants were collected, and analyzed using the Nova Biomedical Bioprofile Flex Analyzer, which determined glucose, glutamine, lactate, and ammonia levels. For the HIF-1 induction experiments, K562 cells were incubated at 4 million cells/ml in a plastic tube (Falcon 35-2059) with rubber stopper (Kontes Glass Company #882310), with constant stirring at 37 C. At indicated time points, tubes were spun to pellet cells, and the glucose, lactate and pO2 content of supernatant was assessed by syringe sampling through an air-tight rubber stopper. After supernatant sampling, cells were collected and lysates were prepared as described above.
To further investigate what functional role the TCA cycle might play in K562 proliferation, we compared the ability of phenformin-treated cells to metabolize glutamine. In tumor cells, glutaminolysis is important in maintaining TCA cycle activity, as it serves to provide an additional source of TCA cycle intermediates (a-ketoglutarate) to the mitochondria.

The subject of another data set is Akt. Description: Western blot of phospho-Akt in K562 cells 24 hours after inhibitor treatment. It is filed as cell-based. Particulars: relative to untreated, FIG. 2. From the text:
(§3) Western Blot Analysis. Cells were lysed in radioimmunoprecipitation (RIPA) buffer containing protease inhibitors (Complete Mini, Roche Applied Science), and protease inihibitors cocktails I and II (Sigma). BCA Protein Assay kit (Pierce Biotechnology) was used to assess and standardize protein concentrations. Proteins were resolved using a 4-12% NuPage Bis-Tris polyacrylamide gels (Invitrogen), and transferred to nitrocellulose membranes. Membranes were blocked using 5% nonfat dry skim milk and 0.1% Tween. […] Bands were subsequently detected using horseradish-peroxidase conjugated anti-mouse or anti-rabbit secondary antibodies (GE Healthcare Industries) and enhanced chemiluminescence detection kit (Amersham).
(§4) To characterize the pattern of signaling pathway activation in inhibitor-treated cells, the activity of the Akt and Jak-STAT pathways were examined, two pathways known to be activated by the bcr-abl oncogenic signaling. Proteins were isolated from cells, 24 hours after inhibitor treatment, and assessed for levels of phospho-Akt ([…]) and phospho-STAT5 (tyr694/699), as well as total levels of these proteins as loading controls.

The test system of data set [3] is K562 cells. Description: K562 viability under medium depletion of glucose or glutamine (propidium iodide exclusion, FACS). It is filed as cell-based. The following applies: K562, 4 days; FIG. 7. The method, then:
as §1
The viability of K562 cells after variable inhibitor treatment, and selective medium depletion of glucose or glutamine, is shown. Cell viability was determined by propidium iodide exclusion of 10,000 cells (via FACS analysis), taken from each culture each day of experiment.

Another data set relates to STAT5. Description: Western blot of phospho-STAT5 (tyr694/699) in K562 cells 24 hours after inhibitor treatment. Type of data set: cell-based. The following applies: relative to untreated, FIG. 2.
Description: as §3, §4

Data set [4] concerns K562 cells. The experiment in a line: K562 proliferation, cell number by Coulter Counter over four days after a single dose of inhibitor. The following applies: FIG. 1A; for effect on K562 proliferation (cell number): 25 nM rapamycin, four days.
Data set [5] has as its system K562 cells. The experiment in a line: Aerobic glycolysis: total glucose consumption and lactate production of K562 cultures over four days (Nova Bioprofile Flex Analyzer). The following applies: for glucose consumption: FIG. 5A; for lactate production: FIG. 5B. Type of data set: cell-based. The method, then: as §2
To investigate the metabolic effects of phenformin on K562 cells, we compared the glycolytic activity of the cells in the drug-treated cultures by quantifying total glucose consumption and lactate production over four days (FIGS. 5A and 5B, respectively), by collecting and analyzing daily cell culture supernatants using a Nova Biomedical Bioprofile Flex Analyzer. […] Phenformin was therefore novel in its ability to dissociate aerobic glycolysis from cell proliferation.

Data set [6] has as its system K562 cells. Description: Comparison of phenformin and metformin: total K562 cell number after three days over a range of biguanide concentrations. Type of data set: cell-based. Particulars: three days after a single dose, FIG. 3; for inhibition of K562 proliferation: started at 200,000 cells/ml. The source says:
Direct comparison of metformin and phenformin activity, over a range of biguanide concentrations, was accomplished by comparing total K562 cell number after three days of exposure to a single dose of phenformin or metformin, as indicated (FIG. 3). Cell cultures were started at a density of 200,000 cells/ml.

The conditions of data set [7]: treatment of diabetes; background statement; cited from earlier work.
The test system of data set [8] is K562 cells. Description: Intracellular ATP levels (Invitrogen ATP determination kit). Type of data set: cell-based. The following applies: K562, 24 hours of inhibitor treatment; 25,000 cell pellets; FIG. 6B. The method, then: (§5) Oxygen consumption by whole cells was measured as previously described. See Schumacker P T, Chandei N, Agusti A G. Oxygen conformance of cellular respiration in hepatocytes. Am J. Physiol. 1993; 265:L395-402. Briefly, inhibitor-treated (24 hours) K562 cells were resuspended at a concentration of 4 million cells/ml, and 1.4 mL of culture was transferred to a water-jacketed, airtight 3 ml chamber with a Clarke oxygen electrode, (Hansatech Instruments). Electron transport activity was manipulated through mitochondrial uncoupling with 10 uL of 1 mM Carbonyl cyanide 3-chlorophenylhydrazone (CCCP) (Sigma), and media supplementation of sodium Succinate (25 uL of 1M stock), after membrane permeabilization with […] (4 ul of 25 mg/ml stock). Relative ATP levels were assessed using the Invitrogen ATP determination kit (A22066), as per protocol, using 25,000 cell pellets. Cells were assayed after 24 hours of inhibitor treatment, as indicated, and results were expressed as Arbitrary Units/25000 cells.
Cells were assayed after 24 hours of inhibitor treatment, as indicated, and results were expressed as Arbitrary Units/25000 cells. Oxygen consumption correlated closely with relative levels of intracellular ATP.

Data set [9] concerns K562 cells. The experiment in a line: Oxygen consumption rate (electron transport activity), Clarke oxygen electrode. Type of data set: cell-based. Particulars: 24 hours inhibitor treatment, relative to untreated, FIG. 6A. The method, then: as §5
Electron Transport Activity (ETC) activity, as determined by oxygen consumption rates, was assessed after treatment with each inhibitor, using a water-jacketed, airtight 3 ml chamber with a Clarke oxygen electrode, (Hansatech Instruments).

The test system of data set [10] is Bax-Bak deficient lymphocytes. The experiment in a line: Proliferation of Bax-Bak deficient lymphocytes with IL-3 stimulation, total cell number after three days. Type of data set: cell-based. Particulars: three days after a single dose, started at 200,000 cells/ml, FIG. 4. The method, then:
The ability of phenformin to inhibit the proliferation of Bax-Bak deficient lymphocytes, in the presence of IL-3 stimulation, was assessed, and compared to the activity of metformin. Direct comparison of metformin and phenformin activity, over a range of biguanide concentrations, was accomplished by comparing total cell numbers of bax-bak deficient cells after three days exposure to a single dose of phenformin or metformin, as indicated (FIG. 4). Cell cultures were started at a density of 200,000 cells/ml.

The subject of the next data set is c-myc. Description: Western blot of BCR-Abl-induced c-myc expression in K562 cells after 24 hours of inhibitor treatment. It is filed as cell-based. Particulars: K562, 24 hours of inhibitor treatment; FIG. 9.
In the next data set the test system is HIF-1. The experiment in a line: HIF-1 induction in K562 cells in airtight tubes (Western blot). Particulars: 37° C., FIG. 10D. It is filed as cell-based.
Description: as §3
Daily cell culture supernatants were collected, and analyzed using the Nova Biomedical Bioprofile Flex Analyzer, which determined glucose, glutamine, lactate, and ammonia levels. […] At indicated time points, tubes were spun to pellet cells, and the glucose, lactate and pO2 content of supernatant was assessed by syringe sampling through an air-tight rubber stopper. […]
Phenformin-treated and untreated K562 cells were transferred to airtight tubes and incubated at 37° C. for 1 to 6 hours. At one hour intervals, supernatants were analyzed for partial oxygen pressure (pO2), glucose, and lactate levels, while cells were collected for protein extract preparation. […]

The subject of data set [11] is K562 cells. The experiment in a line: pO2, glucose and lactate in supernatants of K562 cells incubated in airtight tubes at 37° C. The following applies: 1 to 6 hours, versus untreated, FIG. 10A. Type of data set: cell-based. The method, then: as §2
Phenformin-treated and untreated K562 cells were transferred to airtight tubes and incubated at 37° C. for 1 to 6 hours. At one hour intervals, supernatants were analyzed for partial oxygen pressure (pO2), glucose, and lactate levels, while cells were collected for protein extract preparation. […] FIG. 10D. Tubulin serves as loading control.

Where [12] appears, read: 1 mM phenformin, 750 nM imatinib.

Description for c-myc: Western Blot Analysis. Cells were lysed in radioimmunoprecipitation (RIPA) buffer containing protease inhibitors (Complete Mini, Roche Applied Science), and protease inihibitors cocktails I and II (Sigma). BCA Protein Assay kit (Pierce Biotechnology) was used to assess and standardize protein concentrations. Proteins were resolved using a 4-12% NuPage Bis-Tris polyacrylamide gels (Invitrogen), and transferred to nitrocellulose membranes. Membranes were blocked using 5% nonfat dry skim milk and 0.1% Tween. Blots were subsequently probed with primary antibodies against: REDD-1 (Proteintech Group Inc), phospho-ser235/236 S6RP, total S6RP, phospho-thr172 AMPK, total-AMPK, phospho-tyr694/699 STAT5 (Upstate Biotechnology), total STAT5 (Upstate Biotechnology), phospho-thr202/tyr204 p42/44MAPK, total p42/44 MAPK, c-myc (Santa Cruz Biotechnologies), HIF-1a (Biosciences Pharmingen), and tubulin (Sigma). Unless otherwise indicated, all antibodies were obtained from Cell Signaling Technologies. Bands were subsequently detected using horseradish-peroxidase conjugated anti-mouse or anti-rabbit secondary antibodies (GE Healthcare Industries) and enhanced chemiluminescence detection kit (Amersham).
Expression levels of c-myc in inhibitor and untreated (U) control K562 cells was investigated by Western Blotting of cellular extracts prepared after 24 hours of inhibitor treatment.

In the case of `Cc1ccc(NC(=O)c2ccc(CN3CCN(C)CC3)cc2)cc1Nc1nccc(-c2cccnc2)n1` [imatinib], in the data set with K562 cells [1], the cell viability result is recorded as “induced a decrease in viability”. Also, in the data set on K562 cells [2], the glutamine uptake entry is given as “failed to demonstrate substantial glutamine uptake”. Besides, the Akt phosphorylation entry in the data set on Akt is listed as “left Akt phosphoylation intact”. Moreover, the “cell viability in glutamine-depleted medium” value with K562 cells [3] was “significantly increased cell death upon glutamine depletion”. In addition, the STAT5 phosphorylation result in the data set on STAT5 is reported as “decreased the levels of STAT5 phosphorylation”. Moreover, in the data set with K562 cells [4] (750 nM imatinib), the “doubling of cell number achieved before proliferation ceased” value is “approximately one” and the “time after which proliferation ceased” value turned out to be 2 days. For the same compound, in the data set with K562 cells [4] (setting [12]), the “effect on K562 proliferation (cell number)” value was “halted K562 proliferation”. Also, in the data set on K562 cells [5], the glucose consumption result is “minimal glucose consumption”; the lactate production result was “minimal glucose consumption and lactate production”.
On to `CN(C)C(=N)NC(=N)N` [metformin], for which the “inhibition of K562 proliferation” value with K562 cells [6] was “relatively weak inhibitor of K562 proliferation”. Besides, the “risk / incidence of lactic acidosis” value in data set [7] was “significantly less than that observed with phenformin”.
Regarding `[H]/N=C(/N)N/C(=N/[H])NCCc1ccccc1` [phenformin], the cell viability result with K562 cells [1] was “greater viability over the four days”. For the same compound, the glutamine uptake result with K562 cells [2] is “failed to demonstrate substantial glutamine uptake”. Further, the Akt phosphorylation result in the data set with Akt is given as “no suppression of Akt phosphorylation”. In the data set with K562 cells [3], the “cell viability in glucose-depleted medium” value is recorded as “significantly increased cell death upon glucose depletion” and the “cell viability in glutamine-depleted medium” value is listed as “significantly increased cell death upon glutamine depletion”. Besides, in the data set with K562 cells [6], the “potency in inhibiting K562 proliferation relative to metformin” value is on record as 100 fold and the “inhibition of K562 proliferation” value is recorded as “more potent inhibitor of K562 proliferation”. In addition, the “risk / incidence of lactic acidosis” value in data set [7] is recorded as “increased risk of lactic acidosis”. Besides, the “intracellular ATP levels” value in the data set on K562 cells [8] is reported as “most profoundly reduced”. The “effect on K562 proliferation (cell number)” value in the data set on K562 cells [4] (setting [12]) is “halted K562 proliferation”. Besides, the “time after which no increase in cell number was observed” value with K562 cells [4] (1 mM phenformin) is 24 h. In addition, in the data set on K562 cells [9], the oxygen consumption entry is “most dramatically reduced oxygen consumption”. Moreover, in data set [10], the “inhibition of proliferation of bax-bak deficient cells” value is recorded as “prevents proliferation of bax-bak deficient cells; also recorded: consistently more potent an inhibitor than metformin”. For the same compound, in the data set with K562 cells [5], the glucose consumption result was “consumed glucose at rates similar to untreated cells”; the lactate production entry is “accumulated lactate and consumed glucose at rates similar to untreated cells”. In the data set with c-myc, the c-myc expression result was “inhibited c-myc expression more effectively than rapamycin; also recorded: commensurate in efficacy with imatinib”. Besides, the HIF-1 induction result in the data set on HIF-1 was “prevented HIF-1 induction; also recorded: prevents hypoxia and HIF-1 induction”. Further, in the data set with K562 cells [11], the “partial oxygen pressure (pO2) of the culture” value is “dramatically different partial oxygen pressures; also recorded: absence of hypoxia; also recorded: maintained an oxygen-rich environment”.
